According to patent US20080299109A1, “MECHANISM OF ASTRICYTE-NEURON SIGNALING” (Korea Institute of Science and Technology, priority 2007, published 2008):

Assays:
[1] = test system: NMDA receptor-mediated component of the EPSP; assay: Current clamp EPSP recording in CA1 pyramidal cells; format: cell-based, rat; details: 30 μM TFLLR, 30 nM thrombin
Protocol: Young rats (Sprague-Dawley, age P15-P20) or mice (C57/B16, age P14-19) were deeply anesthetized with isoflurane and decapitated. The brain was rapidly removed and submerged in an ice-cold oxygenated artificial cerebrospinal fluid (ACSF) comprised of 130 mM NaCl, 24 mM NaHCO3, 3.5 mM KCl, 1.25 mM NaH2PO4, 1 mM CaCl2,3 mM MgCl2, and 10 mM glucose saturated with 95% O2/5% CO2, at pH 7.4.
The hemisected brain was glued onto the stage of a vibrating microtome (Leica VT1000 S) and sections of 300 μm thickness were cut and stored in an incubation chamber at room temperature for about 1 h before use. […]
Synaptic responses were evoked by applying 0.1 ms current injection (1-100 μA) to a bipolar stimulating electrode placed in the stratum radiatum. Thrombin (Calbiochem) concentration was determined as described by Gingrich et al. (2000) using conversion of 1 U/ml=10 nM. […]
A series of current clamp experiments were carried out to directly measure the effects of PAR1 activation on the NMDA receptor-mediated component of the EPSP recorded in the presence of 1.5 mM Mg^2+. […]

[2] = test system: cultured wild-type mouse astrocytes; assay: Fura-2 intracellular Ca2+ imaging in cultured wild-type astrocytes; format: cell-based; details: 30 nM thrombin
Protocol: Cultured astrocytes were prepared from P0-P3 postnatal mice obtained from KIST SPF. The cerebral cortex was dissected free of adherent meninges, minced, and dissociated into single cell suspension by trituration through a Pasteur pipette. All procedures involving the use of animals were reviewed and approved by the Emory University IACUC. Dissociated cells were plated onto either 12 mm glass coverslips or 6 well plates coated with 0.1 mg/ml poly-D-lysine. Cells were grown in a DMEM media (Gibco, cat# 11960-044) supplemented with 25 mM glucose, 10% heat-inactivated horse serum, and 10% heat-inactivated fetal bovine serum, 2 mM glutamine, and 1000 units/ml penicillin-streptomycin. Cultures were maintained at 37° C. in a humidified 5% CO2-containing atmosphere. […] In some experiments, the culture media was replaced 24 hours after plating with DMEM with all added components except glutamine, and cultures were maintained for 4 days before experimentation in glutamine-free media.
Cultured astrocytes were incubated with 5 µM Fura2-AM in […] pluronic acid (Molecular Probes) for 30 min at room temperature, and subsequently transferred to a microscope stage for imaging. The external solution contained 150 mM NaCl, 10 mM HEPES, 3 mM KCl, 2 mM CaCl2, 2 mM MgCl2, and 5.5 mM glucose, and the pH was adjusted to pH 7.3 and osmolarity to 325 mOsm. Intensity images of a 510 nm wavelength were taken at 340 nm and 380 nm excitation wavelengths using either a Micromax Camera (Princeton) or an intensified video camera (PTI), and the two resulting images were used for ratio calculations using Axon Imaging Workbench version 2.2.1.

[3] = test system: PAR1−/− mouse astrocytes; assay: Fura-2 intracellular Ca2+ imaging in cultured PAR1−/− astrocytes; format: cell-based; details: 30 μM TFLLR, 30 nM thrombin, 10 μM ATP positive control
Protocol: Cultured astrocytes were prepared from P0-P3 postnatal mice obtained from KIST SPF. The cerebral cortex was dissected free of adherent meninges, minced, and dissociated into single cell suspension by trituration through a Pasteur pipette. All procedures involving the use of animals were reviewed and approved by the Emory University IACUC. Dissociated cells were plated onto either 12 mm glass coverslips or 6 well plates coated with 0.1 mg/ml poly-D-lysine. Cells were grown in a DMEM media (Gibco, cat# 11960-044) supplemented with 25 mM glucose, 10% heat-inactivated horse serum, and 10% heat-inactivated fetal bovine serum, 2 mM glutamine, and 1000 units/ml penicillin-streptomycin. Cultures were maintained at 37° C. in a humidified 5% CO2-containing atmosphere. Astrocyte cultures prepared in this way were previously determined by GFAP (glial fibrillary acidic protein) staining to be greater than 95% astrocytes (Nicole et al., 2005). In some experiments, the culture media was replaced 24 hours after plating with DMEM with all added components except glutamine, and cultures were maintained for 4 days before experimentation in glutamine-free media.
Cultured astrocytes were incubated with 5 µM Fura2-AM in […] pluronic acid (Molecular Probes) for 30 min at room temperature, and subsequently transferred to a microscope stage for imaging. […]

## thrombin
[1]
  potentiation of synaptic NMDA component of EPSPs at 34° C.: 120±6%
[2]; without or after pretreatment with 1 μM BMS200261
  change in Fura-2 ratio: 150.9±17.4%
[2]; 30 μM TFLLR, 10 μM bradykinin, 50 μM 2-methyl-thio-ATP, 10 μM ATP
  level of astrocytic intracellular Ca^2+ (Fura-2 fluorescence ratio): robust increase
[3]
  intracellular Ca^2+ concentration in PAR1−/− astrocytes: did not cause an increase
